Our source for the IC50 values is ChEMBL document CHEMBL1148666, “Inhibition of protein tyrosine phosphatase 1B by diterpenoids isolated from Acanthopanax koreanum” (Bioorg Med Chem Lett, 2006).

Molecules are shown by their SMILES.

This experiment has as its target T1, Tyrosine-protein phosphatase non-receptor type 1 (Homo sapiens, UniProt P18031).
T1 sequence (P18031 whole entry): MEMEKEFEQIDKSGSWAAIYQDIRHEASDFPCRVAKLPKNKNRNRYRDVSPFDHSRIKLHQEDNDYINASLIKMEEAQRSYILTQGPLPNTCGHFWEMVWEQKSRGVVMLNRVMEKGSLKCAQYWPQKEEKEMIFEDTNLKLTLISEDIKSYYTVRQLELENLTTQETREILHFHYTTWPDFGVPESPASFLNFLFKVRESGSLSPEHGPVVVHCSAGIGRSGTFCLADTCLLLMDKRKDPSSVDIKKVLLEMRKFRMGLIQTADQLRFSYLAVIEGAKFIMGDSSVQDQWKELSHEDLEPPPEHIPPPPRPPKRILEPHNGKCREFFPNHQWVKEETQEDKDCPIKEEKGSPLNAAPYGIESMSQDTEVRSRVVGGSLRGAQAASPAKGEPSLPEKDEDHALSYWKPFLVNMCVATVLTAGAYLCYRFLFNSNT
Description: Inhibition of human recombinant PTP1B.

Regarding `C=C[C@]1(C)C=C2C(CC1)[C@]1(C)CCC[C@@](C)(C(=O)O)C1C[C@@H]2O` (some centres undefined), the IC50 was over 30 µM. Under `CC(C)CC(=O)OC[C@H]1C[C@@]23CCC4[C@@](C)(CCC[C@@]4(C)C(=O)O)C2CC[C@@H]1C3` (some centres undefined) stands 7.1 µM. As to `CC(C)CC(=O)OC[C@@]1(O)C[C@@]23CCC4[C@@](C)(CCC[C@@]4(C)C(=O)O)C2CC[C@@H]1C3` (some centres undefined), the IC50 was over 30 µM.

As to `C[C@@]12CCC[C@@](C)(C(=O)O)C1CC[C@@]13C[C@@H](CCC12)[C@](C)(O)C3` (some centres undefined), the IC50 is over 30 µM. Under `CCCCCCCCCCCCCCCC(=O)C1=C(O)[C@@H](CO)OC1=O` stands 4.5 µM; under `C=C[C@@]1(C)CC=C2C(CCC3[C@](C)(C(=O)O)CCC[C@@]23C)C1` (some centres undefined) [ACANTHOIC ACID], 23.5 µM; under `C=C[C@]1(C)CC[C@@]2(O)[C@@H](C1)C(=O)CC1[C@](C)(C(=O)O)CCC[C@]12C` (some centres undefined) [ACANTHOKOREOIC ACID A], over 30 µM.

Turning to `C=C[C@@]1(C)CC=C2C(CCC3[C@](C)(CO)CCC[C@@]23C)C1` (some centres undefined) [ACANTHOL], the IC50 is over 30 µM. As to `C=C1C[C@@]23CC[C@H]4[C@@](C)(CCC[C@@]4(C)C(=O)O)[C@@H]2CC[C@@H]1C3` [KAURENOIC ACID], the IC50 was 20.2 µM.

A word on the IC50: it is the concentration that inhibits the measured activity by half.
